Measured values: US20190216827A1, “Composite Formulation of Dutasteride and Tadalafil Comprising Glycerol Fatty Acid Ester Derivative or Propylene Glycol Fatty Acid Ester Derivative and Oral Capsule Formulation Comprising the Same” (Yuyu Pharma, Inc., priority 2016, published 2019)
In brackets after ≈: the same amount, converted by molar mass. Values belong to the compound of their own block, whether it stands above or below them.

Tests used:
[1] = Solubility test of dutasteride and tadalafil in oils; type: physicochemical; conditions: room temperature, stirring for 24 hours; for solubility at 24 h: oil or lipid, thermodynamic from solid
[2] = as above; type: physicochemical; conditions: for solubility in a general oil: castor oil or soybean oil; for Solubility / solubility at 24 h: room temperature, stirring for 24 hours; for solubility at 24 h: oil or lipid, thermodynamic from solid
Method: In order to determine the solubility of dutasteride and tadalafil in oils, the solubilities to soybean oil, castor oil, glycerol monooleate, glycerol caprylate/caprate, propylene glycol monocaprylate and propylene glycol monolaurate were measured. A magnetic bar was placed in a 10 ml, vial, and 3 ml, of oil was added thereto. Then, while the mixture was stirred at room temperature, 100 mg of the main component was added thereto and the mixture was stirred at 500 rpm or higher. After stirring for 24 hours, only a supernatant was taken by a centrifugal separator, and an amount of the main component dissolved in the oil phase was quantitated by using a liquid chromatograph.

[3] = in glycerol caprylate/caprate, glycerol monooleate, propylene glycol monocaprylate and propylene glycol monolaurate
[4] = in glycerol fatty acid ester derivative or propylene glycol fatty acid ester derivative as oil component

Compound: 17β-N-(2,5-bis (trifluoromethyl)) phenylcarbamoyl-4-aza-5α-androst-1-en-3-one [dutasteride]
Solubility ([1]; solvent Glycerol tricaprylate): 0.84 mg/mL | solubility in a general oil [2]: low | solubility of dutasteride [2, 3]: ≥ 2.5 mg/mL | solubility of dutasteride [2, 4]: ≥ 1 mg/mL | Solubility ([2]; solvent Castor oil): 1.50 mg/mL | Solubility ([2]; solvent Glycerol caprylate/caprate): 14.34 mg/mL | Solubility ([2]; solvent Glycerol monooleate): 4.58 mg/mL | Solubility ([2]; solvent Propylene glycol dicaprate): 0.77 mg/mL | Solubility ([2]; solvent Propylene glycol dicaprylate): 1.13 mg/mL | Solubility ([2]; solvent Propylene glycol monocaprylate): 20.98 mg/mL | Solubility ([2]; solvent Propylene glycol monolaurate): 9.34 mg/mL

solubility at 24 h ([1]; glycerol tricaprylate (oil), solvent Glycerol tricaprylate): 400 µg/mL (≈ 1030 µM) | solubility at 24 h ([1]; propylene glycol dicaprylate (oil), solvent Propylene glycol dicaprylate): 440 µg/mL (≈ 1130 µM) | solubility in a general oil [2]: low | solubility at 24 h ([2]; glycerol caprylate/caprate (oil), solvent Glycerol caprylate/caprate): 4130 µg/mL (≈ 10600 µM) | solubility at 24 h ([2]; glycerol monooleate (oil), solvent Glycerol monooleate): 1110 µg/mL (≈ 2850 µM) | solubility of tadalafil relative to that of dutasteride [2, 3]: ⅓ | solubility of tadalafil relative to the solubility of dutasteride [2, 4]: ½ | solubility at 24 h ([2]; solvent Castor oil): 1030 µg/mL (≈ 2650 µM) | solubility at 24 h ([2]; solvent Soybean oil): 240 µg/mL (≈ 616 µM) | solubility at 24 h ([2]; propylene glycol dicaprate (oil), solvent Propylene glycol dicaprate): 270 µg/mL (≈ 693 µM) | solubility at 24 h ([2]; propylene glycol monocaprylate (oil), solvent Propylene glycol monocaprylate): 4090 µg/mL (≈ 10500 µM) | solubility at 24 h ([2]; propylene glycol monolaurate (oil), solvent Propylene glycol monolaurate): 1030 µg/mL (≈ 2650 µM)
Compound: CN1CC(=O)N2[C@H](c3ccc4c(c3)OCO4)c3[nH]c4ccccc4c3C[C@@H]2C1=O [tadalafil, 6R-trans-6-(1,3-benzodioxol-5-yl)-2,3,6,7,12,12a-hexahydro-2-methyl-pyrazino [1′,2′:1,6] pyrido[3,4-b]indole-1,4-dione]
